This passage reports IC50 results from US10689378B2, “Triazolopyridine compounds and uses thereof” (Novartis AG, priority 2016, dated 2020).

One assay has as its target T1, EED (1-441)-His protein (Homo sapiens, UniProt O75530).
T1 construct: 30 nM EED (1-441)-His protein
In words: EED-H3K27Me3 peptide competition binding assay by AlphaScreen. Particulars: read-out: (a) IC50, EED Alphascreen binding Qualified. The method in brief:
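Serially diluted compound (12 points, 3-fold) incubated 20 min with 30 nM EED(1-441)-His and 15 nM biotin-H3K27Me3(19-33) peptide in 25 mM HEPES pH 8, 0.02% Tween-20, 0.5% BSA. Ni-chelate acceptor/streptavidin donor beads (10 μg/mL each) added, 1 h rt dark; 615 nm emission normalized to controls, dose-response fit for IC50.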

The target in assay [1] is wild type PRC2 (wtPRC2) complex (Homo sapiens, UniProt O75530). In words: EED LC-MS assay (SAH production by PRC2). Format: biochemical. Particulars: read-out: (b) IC50, EED LC-MS Qualified. Here is the method: Compounds of the present invention were assessed for their ability to inhibit PRC2 activity in a pentameric complex of EZH2, SUZ12, EED, Rbap48 and AEBP in biochemical assays. The ability of compounds of the present invention to inhibit cellular activity of PRC2 was assessed by analysing histone H3 lysine 27 methylation in human cell lines. The ability of compounds of the present invention to inhibit cancers was derived from their ability to modulate activity in human cancer cell lines bearing specific dependence to PRC2 activity to maintain cancerous growth.
Chain of wild type PRC2 (wtPRC2) complex (O75530 whole entry): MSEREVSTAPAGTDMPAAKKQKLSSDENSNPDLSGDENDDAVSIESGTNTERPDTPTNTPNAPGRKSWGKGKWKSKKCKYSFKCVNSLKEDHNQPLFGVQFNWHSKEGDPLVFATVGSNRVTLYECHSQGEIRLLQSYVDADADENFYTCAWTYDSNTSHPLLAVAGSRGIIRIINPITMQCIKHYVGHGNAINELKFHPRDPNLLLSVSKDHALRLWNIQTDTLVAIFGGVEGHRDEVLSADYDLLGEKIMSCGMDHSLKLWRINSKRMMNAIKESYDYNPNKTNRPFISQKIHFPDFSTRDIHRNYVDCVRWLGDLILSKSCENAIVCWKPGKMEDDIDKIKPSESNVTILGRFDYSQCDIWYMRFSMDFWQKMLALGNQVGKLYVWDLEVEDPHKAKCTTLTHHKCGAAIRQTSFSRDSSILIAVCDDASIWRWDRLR
Chain of wild type PRC2 (wtPRC2) complex (Q15910 whole entry partner): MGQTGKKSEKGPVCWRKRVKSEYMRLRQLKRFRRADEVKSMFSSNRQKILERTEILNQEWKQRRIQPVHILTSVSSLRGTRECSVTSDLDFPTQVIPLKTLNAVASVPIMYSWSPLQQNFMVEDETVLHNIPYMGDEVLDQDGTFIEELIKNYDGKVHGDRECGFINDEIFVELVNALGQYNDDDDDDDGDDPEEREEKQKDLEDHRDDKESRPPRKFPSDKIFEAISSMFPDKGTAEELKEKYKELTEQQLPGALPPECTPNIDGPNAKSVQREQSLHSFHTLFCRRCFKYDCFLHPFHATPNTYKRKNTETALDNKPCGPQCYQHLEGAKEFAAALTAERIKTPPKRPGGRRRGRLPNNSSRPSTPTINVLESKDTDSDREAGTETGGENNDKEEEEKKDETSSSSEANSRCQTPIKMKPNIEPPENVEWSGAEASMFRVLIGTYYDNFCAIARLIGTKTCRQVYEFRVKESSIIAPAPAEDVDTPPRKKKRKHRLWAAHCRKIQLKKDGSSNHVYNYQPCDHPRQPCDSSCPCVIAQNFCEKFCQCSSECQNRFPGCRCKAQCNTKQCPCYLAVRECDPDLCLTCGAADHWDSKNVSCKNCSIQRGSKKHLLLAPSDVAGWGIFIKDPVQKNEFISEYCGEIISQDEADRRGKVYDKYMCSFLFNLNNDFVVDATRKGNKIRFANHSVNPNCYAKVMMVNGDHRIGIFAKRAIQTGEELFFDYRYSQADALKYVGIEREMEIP
Chain of wild type PRC2 (wtPRC2) complex (Q15022 whole entry partner): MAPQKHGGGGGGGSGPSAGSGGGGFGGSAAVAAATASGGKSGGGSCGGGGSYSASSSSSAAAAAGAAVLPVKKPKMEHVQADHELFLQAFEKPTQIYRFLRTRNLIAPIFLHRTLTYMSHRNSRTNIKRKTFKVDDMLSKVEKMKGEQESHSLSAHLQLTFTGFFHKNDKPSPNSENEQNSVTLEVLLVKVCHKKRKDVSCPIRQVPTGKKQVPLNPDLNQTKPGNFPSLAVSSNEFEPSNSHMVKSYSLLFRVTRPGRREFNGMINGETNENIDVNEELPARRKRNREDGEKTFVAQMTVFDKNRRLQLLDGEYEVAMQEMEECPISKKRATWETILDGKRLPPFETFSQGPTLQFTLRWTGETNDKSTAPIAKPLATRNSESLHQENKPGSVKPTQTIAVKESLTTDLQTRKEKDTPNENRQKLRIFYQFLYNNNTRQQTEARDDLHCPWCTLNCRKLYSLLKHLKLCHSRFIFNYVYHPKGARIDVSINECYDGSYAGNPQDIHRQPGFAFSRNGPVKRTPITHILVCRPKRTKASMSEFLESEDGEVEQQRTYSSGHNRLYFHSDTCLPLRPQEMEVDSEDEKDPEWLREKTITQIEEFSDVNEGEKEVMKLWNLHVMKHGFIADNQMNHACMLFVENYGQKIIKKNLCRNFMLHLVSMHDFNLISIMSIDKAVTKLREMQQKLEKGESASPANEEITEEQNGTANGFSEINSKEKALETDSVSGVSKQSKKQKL
Chain of wild type PRC2 (wtPRC2) complex (Q09028 whole entry partner): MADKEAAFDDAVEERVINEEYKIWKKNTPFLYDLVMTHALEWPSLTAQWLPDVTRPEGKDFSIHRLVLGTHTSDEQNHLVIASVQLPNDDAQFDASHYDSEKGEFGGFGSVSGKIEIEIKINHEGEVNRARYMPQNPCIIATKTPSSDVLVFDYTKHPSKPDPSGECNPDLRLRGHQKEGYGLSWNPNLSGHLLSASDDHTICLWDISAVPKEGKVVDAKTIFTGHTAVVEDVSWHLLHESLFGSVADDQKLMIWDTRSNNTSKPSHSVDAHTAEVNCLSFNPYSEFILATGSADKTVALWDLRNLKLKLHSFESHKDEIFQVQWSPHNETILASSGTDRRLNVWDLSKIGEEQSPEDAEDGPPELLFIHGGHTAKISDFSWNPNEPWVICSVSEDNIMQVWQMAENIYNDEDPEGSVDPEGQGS
Chain of wild type PRC2 (wtPRC2) complex (Q6ZN18 whole entry partner): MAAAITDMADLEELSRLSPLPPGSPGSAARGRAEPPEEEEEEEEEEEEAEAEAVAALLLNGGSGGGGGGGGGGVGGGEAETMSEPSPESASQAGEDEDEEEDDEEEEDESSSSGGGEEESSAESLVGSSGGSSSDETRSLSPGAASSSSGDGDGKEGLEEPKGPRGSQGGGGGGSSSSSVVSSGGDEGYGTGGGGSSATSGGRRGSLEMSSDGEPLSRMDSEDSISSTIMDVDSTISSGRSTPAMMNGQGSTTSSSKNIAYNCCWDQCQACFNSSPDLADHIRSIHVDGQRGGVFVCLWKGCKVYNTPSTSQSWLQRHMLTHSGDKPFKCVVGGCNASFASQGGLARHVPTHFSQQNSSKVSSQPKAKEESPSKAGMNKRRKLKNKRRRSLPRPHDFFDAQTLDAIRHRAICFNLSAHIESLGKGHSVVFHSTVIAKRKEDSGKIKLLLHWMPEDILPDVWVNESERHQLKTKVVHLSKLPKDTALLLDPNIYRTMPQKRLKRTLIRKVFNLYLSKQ
Representative compounds of the present invention were serially and separately diluted 3-fold in DMSO to obtain a total of eight or twelve concentrations. Then the test compounds at each concentration (120 nL of each) were transferred by Mosquito into a 384-well Perkin Elmer ProxiPlate 384 plus plates. Solutions (6 μL) of 24 nM the wild type PRC2 (wtPRC2) complex and 2 μM SAM in reaction buffer (20 mM Tris, pH 8.0, 0.1% BSA, 0.01% Triton, 0.5 mM DTT) were added to the wells that were then incubated with the test compound for 20 min. A 6 μL solution of 3 μM of the peptide substrate H3K27Me0 (histone H3[21-44]-biotin) in reaction buffer was added to initiate each reaction. The final components in the reaction solution include 12 nM wtPRC2 complex, 1 μM SAM, and 1.5 μM H3K27me0 peptide with varying concentration of the compounds. A positive control consisted of the enzyme, 1 μM SAM and 1.5 μM substrate in the absence of the test compound, and a negative control consisted of 1 μM SAM and 1.5 μM substrate only. Each reaction was incubated at rt for 120 min, then stopped by addition of 3 μL per of quench solution (2.5% TFA with 320 nM d4-SAH). The reaction mixture was centrifuged (Eppendorf centrifuge 5810, Rotor A-4-62) for 2 min at 2000 rpm and read on an API 4000 triple quadrupole mass spec with Turbulon Spray (Applied Biosystem) coupled with Prominence UFLC (Shimadzu). The levels of SAH production were then normalized based on the values coming from the positive and negative controls to give percent enzyme activities. The data were then fit to a dose response equation using the program Helios to get the IC50 values of the test compound.

Assay [2] deals with H3K27 methylation in G401 cell. In words: ELISA (H3K27 methylation) assay in G401 cells. In kind it is cell-based, human. Particulars: Homo sapiens, G-401, read-out: (c) IC50, ELISA Qualified. A digest of the protocol: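 IC50 from dose-response fit of percent inhibition relative to DMSO, using H3K27me3/me2 ELISA signal (ECL) normalized to histone H3. Histones HCl-extracted after 48 h compound exposure of G401 cells at up to 20 μM, 8- or 12-point 3-fold series.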

T1 sequence (O75530 whole entry): as the sequence (O75530 whole entry) above

As to `COc1ccccc1CNc1ccc(-c2ccc(N3CCN(C)CC3)nc2)c2nncn12` [Example 21, N-(2-methoxybenzyl)-8-(6-(4-methylpiperazin-1-yl)pyridin-3-yl)-[1,2,4] triazolo[4,3-a]pyridin-5-amine], the IC50 on EED (1-441)-His protein turned out to be 124 nM; in assay [1], 1060 nM; in assay [2], 234 nM.

As to `COc1ccccc1CNc1ccc(-c2ccc(N3CCN(C)CC3)cc2)c2nncn12` [Example 22, N-(2-methoxybenzyl)-8-(4-(4-methylpiperazin-1-yl)phenyl)-[1,2,4]triazolo[4,3-a] pyridin-5-amine], the IC50 worked out at 56.2 nM on EED (1-441)-His protein, 365 nM in assay [1] and 42.3 nM in assay [2].

Take `COc1ccccc1CNc1ccc(-c2ccncc2)c2nncn12` [Example 24, N-(2-methoxybenzyl)-8-(pyridin-4-yl)-[1,2,4] triazolo[4,3-a]pyridin-5-amine]: the IC50 on EED (1-441)-His protein is 46.4 nM; in assay [1], 92.1 nM; in assay [2], 47.8 nM.

Regarding `COc1ccccc1CNc1ccc(-c2ccc(S(C)(=O)=O)cc2)c2nncn12` [Example 25, N-(2-methoxybenzyl)-8-(4-(methylsulfonyl)phenyl)-[1,2,4]triazolo[4,3-a]pyridin-5-amine], the half-maximal inhibitory concentration (IC50) on EED (1-441)-His protein is 33.6 nM; in assay [1], 151 nM; in assay [2], 50.3 nM.

As to `COc1ccccc1CNc1ccc(-c2ccnnc2)c2nncn12` [Example 26, N-(2-methoxybenzyl)-8-(pyridazin-4-yl)-[1,2,4] triazolo[4,3-a]pyridin-5-amine], the IC50 on EED (1-441)-His protein is 73.4 nM; in assay [1], 498 nM; in assay [2], 47.7 nM.

Take `COc1ccccc1CNc1ccc(-c2cccnc2)c2nncn12` [Example 27, N-(2-methoxybenzyl)-8-(pyridin-3-yl)-[1,2,4] triazolo[4,3-a]pyridin-5-amine]: the IC50 on EED (1-441)-His protein is 44.4 nM; in assay [1], 266 nM; in assay [2] it was 51.5 nM.

For the molecule `COc1ccccc1CNc1ccc(-c2cccc(CN(C)C)c2)c2nncn12` [Example 28, 8-(3-((dimethylamino)methyl)phenyl)-N-(2-methoxybenzyl)-[1,2,4] triazolo[4,3-a]pyridin-5-amine], the IC50 on EED (1-441)-His protein came out at 37.9 nM; in assay [1], 291 nM; in assay [2], 54 nM.

For `COc1ccccc1CNc1ccc(-c2ccc(CN3CCC3)cc2)c2nncn12` [Example 29, 8-(4-(azetidin-1-ylmethyl)phenyl)-N-(2-methoxybenzyl)-[1,2,4]triazolo[4,3-a] pyridin-5-amine], the values for the IC50 (at EED (1-441)-His protein; in assay [1]; in assay [2]) were 13 nM, 87.7 nM and 23.1 nM, respectively.

Regarding `COc1ccccc1CNc1ccc(-c2ccc(CN3CCOCC3)cc2)c2nncn12` [Example 30, N-(2-methoxybenzyl)-8-(4-(morpholinomethyl)phenyl)-[1,2,4]triazolo[4,3-a]pyridin-5-amine], the concentration for half-maximal inhibition (IC50) at EED (1-441)-His protein stood at 38.2 nM; in assay [1], 483 nM; in assay [2], 113 nM.

Consider `COc1ccccc1CNc1ccc(-c2ccc(C(C)N3CCCC3)cc2)c2nncn12` (stereo not drawn) [Example 32, N-(2-methoxybenzyl)-8-(4-(1-(pyrrolidin-1-yl)ethyl)phenyl)-[1,2,4] triazolo[4,3-a]pyridin-5-amine], for which the half-inhibitory concentration (IC50) at EED (1-441)-His protein is 17.4 nM; in assay [1], 142 nM; in assay [2], 38 nM.

Consider `COc1cc(F)ccc1CNc1ccc(-c2ccc(CN(C)C)cc2)c2nncn12` [Example 33, 8-(4-((dimethylamino)methyl)phenyl)-N-(4-fluoro-2-methoxybenzyl)-[1,2,4] triazolo[4,3-a]pyridin-5-amine], for which the 50% inhibitory concentration (IC50) stood at 84.2 nM on EED (1-441)-His protein, 294 nM in assay [1] and 277 nM in assay [2].

As to `COc1ccccc1CNc1ccc(-c2ccc(S(=O)(=O)N(C)C)cc2)c2nncn12` [Example 34, 4-(5-((2-methoxybenzyl)amino)-[1,2,4]triazolo[4,3-a]pyridin-8-yl)-N,N-dimethyl benzenesulfonamide], the half-maximal inhibitory concentration (IC50) came out at 4.5 nM on EED (1-441)-His protein, 358 nM in assay [1] and 18.4 nM in assay [2].

For the molecule `COc1ccccc1CNc1ccc(-c2ccc(CN3CCOCC3)nc2)c2nncn12` [Example 38, N-(2-methoxybenzyl)-8-(6-(morpholinomethyl)pyridin-3-yl)-[1,2,4]triazolo[4,3-a] pyridin-5-amine], the values for the IC50 (on EED (1-441)-His protein; in assay [1]; in assay [2]) were 32.5 nM, 438 nM and 46.9 nM, respectively.

For `COc1ccccc1CNc1ccc(-c2ccc(CN3CCN(C)CC3)cc2)c2nncn12` [Example 39, N-(2-methoxybenzyl)-8-(4-((4-methylpiperazin-1-yl)methyl)phenyl)-[1,2,4] triazolo[4,3-a]pyridin-5-amine], the IC50 came to 15.5 nM on EED (1-441)-His protein, 269 nM in assay [1] and 37.5 nM in assay [2].

For the molecule `COc1ccccc1CNc1ccc(-c2ccc(C[N+](C)(C)[O-])cc2)c2nncn12` [Example 40, 1-(4-(5-((2-methoxybenzyl)amino)-[1,2,4]triazolo[4,3-a]pyridin-8-yl)phenyl)-N,N-dimethylmethanamine oxide], the values for the 50% inhibitory concentration (IC50) (on EED (1-441)-His protein; in assay [1]; in assay [2]) were 78 nM, 457 nM and 138 nM, respectively.

Regarding `COc1ccccc1CNc1ccc(-c2ccc(C(=O)N(C)C)cc2)c2nncn12` [Example 41, 4-(5-((2-methoxybenzyl)amino)-[1,2,4]triazolo[4,3-a]pyridin-8-yl)-N,N-dimethyl benzamide], the IC50 at EED (1-441)-His protein came to 24.9 nM; in assay [1], 305 nM; in assay [2], 47.4 nM.

As to `COc1ccccc1CNc1ccc(-c2ccc(C(=O)N3CCCC3)cc2)c2nncn12` [Example 42, (4-(5-((2-methoxybenzyl)amino)-[1,2,4]triazolo[4,3-a]pyridin-8-yl)phenyl) (pyrrolidin-1-yl)methanone], the figures for the half-inhibitory concentration (IC50) (on EED (1-441)-His protein; in assay [1]; in assay [2]) were 16.5 nM, 206 nM and 27.9 nM, respectively.

Regarding `COc1ccccc1CNc1ccc(-c2cc(F)c(CN(C)C)c(F)c2)c2nncn12` [Example 43, 8-(4-((dimethylamino)methyl)-3,5-difluorophenyl)-N-(2-methoxybenzyl)-[1,2,4] triazolo[4,3-a]pyridin-5-amine], the IC50 at EED (1-441)-His protein came to 9.5 nM; in assay [1], 785 nM; in assay [2], 3.8 nM.

As for `COc1ccccc1CNc1ccc(-c2cc(F)c(CN3CCCCC3)c(F)c2)c2nncn12` [Example 44, 8-(3,5-difluoro-4-(piperidin-1-ylmethyl)phenyl)-N-(2-methoxybenzyl)-[1,2,4] triazolo[4,3-a]pyridin-5-amine], the IC50 on EED (1-441)-His protein turned out to be 74.8 nM; in assay [1], 1100 nM; in assay [2], 112 nM.

With `COc1cccc(F)c1CNc1ccc(-c2ccc(CN(C)C)cc2)c2nncn12` [Example 45, 8-(4-((dimethylamino)methyl)phenyl)-N-(2-fluoro-6-methoxybenzyl)-[1,2,4] triazolo[4,3-a]pyridin-5-amine], the figures for the IC50 (at EED (1-441)-His protein; in assay [1]; in assay [2]) were 17.7 nM, 23.3 nM and 7.6 nM, respectively.

On to `COc1ccccc1CNc1ccc(-c2ccccc2F)c2nncn12` [Example 47, 8-(2-fluorophenyl)-N-(2-methoxybenzyl)-[1,2,4] triazolo[4,3-a]pyridin-5-amine], for which the IC50 on EED (1-441)-His protein came to 98.5 nM; in assay [1], 1330 nM; in assay [2], 293 nM.

In the case of `COc1ccccc1CNc1ccc(-c2cnc(OC)c(F)c2)c2nncn12` [Example 50, 8-(5-fluoro-6-methoxypyridin-3-yl)-N-(2-methoxybenzyl)-[1,2,4]triazolo[4,3-a] pyridin-5-amine], the half-inhibitory concentration (IC50) on EED (1-441)-His protein was 91.5 nM; in assay [1], 3190 nM; in assay [2], 374 nM.

For the molecule `COc1ncc(-c2ccc(NCc3ccccc3OC)n3cnnc23)cn1` [Example 52, N-(2-methoxybenzyl)-8-(2-methoxypyrimidin-5-yl)-[1,2,4]triazolo[4,3-a]pyridin-5-amine], the results for the IC50 (at EED (1-441)-His protein; in assay [1]; in assay [2]) were 89.4 nM, 735 nM and 106 nM, respectively.
